Tests used:
HL-60(TB) = assay: NCI-60 five-dose assay; format: cell-based, human; settings: HL-60(TB), Leukemia
SNB-75 = assay: NCI-60 five-dose assay; format: cell-based, human; settings: SNB-75, CNS Cancer
NCI-H460 = assay: NCI-60 five-dose assay; format: cell-based, human; settings: NCI-H460, Non-Small Cell Lung Cancer
NCI-H23 = assay: NCI-60 five-dose assay; format: cell-based, human; settings: NCI-H23, Non-Small Cell Lung Cancer
M14 = assay: NCI-60 five-dose assay; format: cell-based, human; settings: M14, Melanoma
OVCAR-3 = assay: NCI-60 five-dose assay; format: cell-based, human; settings: OVCAR-3, Ovarian Cancer
Renal Cancer subpanel = assay: NCI-60 five-dose assay, subpanel; format: cell-based, human; settings: Renal Cancer
SK-MEL-2 = assay: NCI-60 five-dose assay; format: cell-based, human; settings: SK-MEL-2, Melanoma
SNB-19 = assay: NCI-60 five-dose assay; format: cell-based, human; settings: SNB-19, CNS Cancer
OVCAR-8 = assay: NCI-60 five-dose assay; format: cell-based, human; settings: OVCAR-8, Ovarian Cancer
Melanoma subpanel = assay: NCI-60 five-dose assay, subpanel; format: cell-based, human; settings: Melanoma
NCI-H226 = assay: NCI-60 five-dose assay; format: cell-based, human; settings: NCI-H226, Non-Small Cell Lung Cancer
Colon Cancer subpanel = assay: NCI-60 five-dose assay, subpanel; format: cell-based, human; settings: Colon Cancer
TK-10 = assay: NCI-60 five-dose assay; format: cell-based, human; settings: TK-10, Renal Cancer
HOP-92 = assay: NCI-60 five-dose assay; format: cell-based, human; settings: HOP-92, Non-Small Cell Lung Cancer
BRAF^V600E = assay: biochemical
CAKI-1 = assay: NCI-60 five-dose assay; format: cell-based, human; settings: CAKI-1, Renal Cancer
UACC-257 = assay: NCI-60 five-dose assay; format: cell-based, human; settings: UACC-257, Melanoma
BT-549 = assay: NCI-60 five-dose assay; format: cell-based, human; settings: Homo sapiens, BT-549, Breast Cancer
OVCAR-4 = assay: NCI-60 five-dose assay; format: cell-based, human; settings: OVCAR-4, Ovarian Cancer
RXF 393 = assay: NCI-60 five-dose assay; format: cell-based, human; settings: RXF 393, Renal Cancer
ACHN = assay: NCI-60 five-dose assay; format: cell-based, human; settings: ACHN, Renal Cancer
[1] = test system: Non-Small Cell Lung Cancer subpanel; assay: NCI-60 five-dose assay, subpanel; format: cell-based, human; settings: Non-Small Cell Lung Cancer
IGROV1 = assay: NCI-60 five-dose assay; format: cell-based, human; settings: IGROV1, Ovarian Cancer
T-47D = assay: NCI-60 five-dose assay; format: cell-based, human; settings: T-47D, Breast Cancer
CCRF-CEM = assay: NCI-60 five-dose assay; format: cell-based, human; settings: CCRF-CEM, Leukemia
[2] = Homo sapiens, read-out: GI50 Conc. per Cell Line
[3] = Homo sapiens, read-out: LC50 (the source's name)
[4] = Homo sapiens, average sensitivity of all subpanel cell lines, read-out: GI50 Subpanel MID b

Sequence of BRAF^V600E (P28028 whole entry V585E): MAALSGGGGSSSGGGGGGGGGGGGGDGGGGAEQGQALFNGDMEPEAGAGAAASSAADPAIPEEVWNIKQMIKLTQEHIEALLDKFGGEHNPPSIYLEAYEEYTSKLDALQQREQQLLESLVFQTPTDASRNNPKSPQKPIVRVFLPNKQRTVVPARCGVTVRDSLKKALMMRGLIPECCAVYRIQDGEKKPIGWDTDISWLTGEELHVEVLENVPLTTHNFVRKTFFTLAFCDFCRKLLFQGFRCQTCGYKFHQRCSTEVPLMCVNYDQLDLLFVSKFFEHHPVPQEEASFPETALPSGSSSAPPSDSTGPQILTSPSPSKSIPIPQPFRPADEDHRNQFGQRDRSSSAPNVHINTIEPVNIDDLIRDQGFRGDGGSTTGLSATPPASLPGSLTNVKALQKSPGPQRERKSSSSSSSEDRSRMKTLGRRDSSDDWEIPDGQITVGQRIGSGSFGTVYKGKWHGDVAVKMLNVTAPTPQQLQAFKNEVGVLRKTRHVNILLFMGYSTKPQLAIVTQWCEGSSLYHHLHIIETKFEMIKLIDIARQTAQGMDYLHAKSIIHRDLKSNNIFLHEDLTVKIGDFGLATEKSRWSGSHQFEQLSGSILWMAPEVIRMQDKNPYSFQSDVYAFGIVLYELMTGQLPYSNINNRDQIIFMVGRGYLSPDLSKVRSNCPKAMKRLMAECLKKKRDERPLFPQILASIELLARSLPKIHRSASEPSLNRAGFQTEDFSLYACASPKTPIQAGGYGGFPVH

Work on COc1ccc(C=NNC(=O)c2ccc3[nH]c(-c4ccc(Cl)cc4)nc3c2)cc1 [Compound 4g, N′-(4-Methoxybenzylidene)-2-(4-chlorophenyl)-1H-benzimidazole-5-carbohydrazide] yielded a TGI (HL-60(TB)) of over 100 µM, a GI50 (HL-60(TB); [2]) of 1.3 µM and a CC50 (HL-60(TB); [3]) of over 100 µM. The GI50 (SNB-75; [2]) was 1.53 µM, the CC50 (SNB-75; [3]) was 25.7 µM and the TGI (SNB-75) was 4.57 µM. It also gave an LC50 (NCI-H460; Homo sapiens) of 7.05 µM, a GI50 (NCI-H460; [2]) of 1.83 µM and a TGI (NCI-H460) of 3.59 µM. For the same compound, the GI50 (NCI-H23; [2]) was 2.74 µM, the CC50 (NCI-H23; [3]) was 75.9 µM and the TGI (NCI-H23) was 11.20 µM. The GI50 (M14; [2]) was 2.41 µM, the CC50 (M14; [3]) was 40.5 µM and the TGI (M14) was 7.76 µM. The GI50 (OVCAR-3; [2]) was 2.28 µM, the CC50 (OVCAR-3; [3]) was 16 µM and the TGI (OVCAR-3) was 5.14 µM. For the same compound, the GI50 (Renal Cancer subpanel; [4]) was 2.2 µM, the “GI50 Selectivity Ratio (MID a/MID b)” value (Renal Cancer subpanel) was 1.14 and the LC50 (SK-MEL-2; Homo sapiens) was 69.7 µM. It also gave a GI50 (SK-MEL-2; [2]) of 3.59 µM, a TGI (SK-MEL-2) of 13.80 µM and a GI50 (SNB-19; [2]) of 3.13 µM. It also gave a CC50 (SNB-19; [3]) of 49.6 µM, a TGI (SNB-19) of 7.95 µM and a GI50 (OVCAR-8; [2]) of 3.19 µM. It also gave a CC50 (OVCAR-8; [3]) of over 100 µM, a TGI (OVCAR-8) of 11.50 µM and a GI50 (Melanoma subpanel; [4]) of 2.43 µM. For the same compound, the “GI50 Selectivity Ratio (MID a/MID b)” value (Melanoma subpanel) was 1.04, the GI50 (NCI-H226; [2]) was 1.79 µM and the CC50 (NCI-H226; [3]) was 13.5 µM. The TGI (NCI-H226) was 4.43 µM, the “GI50 Selectivity Ratio (MID a/MID b)” value (Colon Cancer subpanel) was 0.96 and the GI50 (Colon Cancer subpanel; [4]) was 2.63 µM. It also gave a GI50 (TK-10; [2]) of 2.95 µM, a CC50 (TK-10; [3]) of 56.7 µM and a TGI (TK-10) of 6.59 µM. The TGI (HOP-92) was 4.11 µM, the LC50 (50% lethal concentration) (HOP-92; Homo sapiens) was 15.1 µM and the GI50 (HOP-92; [2]) was 1.52 µM. It also gave an IC50 (BRAF^V600E) of 0.6 ± 0.05 µM, a TGI (CAKI-1) of 6.03 µM and a GI50 (CAKI-1; [2]) of 2.1 µM. The CC50 (CAKI-1; [3]) was 25.6 µM, the GI50 (UACC-257; [2]) was 3.27 µM and the CC50 (UACC-257; [3]) was 60 µM. The TGI (UACC-257) was 10.10 µM, the GI50 (BT-549; read-out: GI50 Conc. per Cell Line) was 3.36 µM and the CC50 (BT-549; read-out: LC50 (the source's name)) was over 100 µM. For the same compound, the GI50 (OVCAR-4; [2]) was 1.79 µM, the CC50 (OVCAR-4; [3]) was 6.33 µM and the TGI (OVCAR-4) was 3.36 µM. It also gave a GI50 (RXF 393; [2]) of 1.86 µM, a CC50 (RXF 393; [3]) of 7.76 µM and a TGI (RXF 393) of 3.80 µM. It also gave a TGI (ACHN) of 5.04 µM, a GI50 (ACHN; [2]) of 2 µM and a CC50 (ACHN; [3]) of 16.9 µM. The GI50 [1, 4] was 2.71 µM, the “GI50 Selectivity Ratio (MID a/MID b)” value [1] was 0.93 and the GI50 (IGROV1; Homo sapiens, IGROV-1, read-out: GI50 Conc. per Cell Line) was 1.65 µM. For the same compound, the CC50 (IGROV1; Homo sapiens, IGROV-1, read-out: LC50 (the source's name)) was 9.57 µM, the TGI (IGROV1) was 3.97 µM and the GI50 (T-47D; Homo sapiens, T47D, read-out: GI50 Conc. per Cell Line) was 1.94 µM. It also gave a CC50 (T-47D; Homo sapiens, T47D, read-out: LC50 (the source's name)) of 30 µM, a TGI (T-47D) of 4.83 µM and a TGI (CCRF-CEM) of over 100 µM. The GI50 (CCRF-CEM; [2]) was 4.9 µM and the CC50 (CCRF-CEM; [3]) was over 100 µM.

— PMC10819888, “Benzimidazole-Based Derivatives as Apoptotic Antiproliferative Agents: Design, Synthesis, Docking, and Mechanistic Studies” (Molecules, 2024)
